This is an account of results in patent US7419969B2 (Bristol-Myers Squibb Company, priority 2004, dated 2008).

One experiment concerns the target T1, HIV-integrase (Human immunodeficiency virus type 1 group M subtype B, UniProt P04585).
T1 construct: Recombinant integrase (0.26 ng) was incubated with the beads
Description: in-vitro activity against HIV-integrase (HIV Integrase Inhibition, SPA bead assay). To be noted: Table 1; recombinant integrase, activity class. It counts as biochemical. An outline of the steps: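 Recombinant integrase (0.26 ng) pre-bound for 90 min at 37 °C to biotinylated substrate DNA on streptavidin SPA beads, then washed. Inhibitors added with 33P-labelled target DNA; reaction stopped with 10 mM EDTA. Scintillation CPM taken as integration signal.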
Broadly, the IC50 is the midpoint of a concentration-inhibition curve. Consider `O=C(NCc1ccccc1N1CCCCS1(=O)=O)c1nc2n(c(=O)c1O)CCCC21CCC1` [Example 83, 7′,8′-dihydro-3′-hydroxy-4′-oxo-N-[[2-(tetrahydro-1,1-dioxido-2H-1,2-thiazin-2-yl)phenyl]methyl]-spiro[cyclobutane-1,9′(6′H)-[4H]pyrido[1,2-α]pyrimidine]-2′-carboxamide], for which the IC50 is 0.01 to 0.1 µM. On to `O=C(NCc1ccc(F)cc1)c1nc2n(c(=O)c1O)CCC21CCCC1` [Example 84, N-[(4-fluorophenyl)methyl]-6′,7′-dihydro-3′-hydroxy-4′-oxo-spiro[cyclopentane-1,8′(4′H)-pyrrole[1,2-α]pyrimidine]-2′-carboxamide], for which the IC50 lay within 0.001 to 0.01 µM.

Take `CS(=O)(=O)c1cc(F)ccc1CNC(=O)c1nc2n(c(=O)c1O)CCC21CCCC1` [Example 85, N-[[4-fluoro-2-(methylsulfonyl)phenyl]methyl]-6′,7′-dihydro-3′-hydroxy-4′-oxo-spiro[cyclopentane-1,8′(4′H)-pyrrolo[1,2-α]pyrimidine]-2′-carboxamide]: the IC50 was 0.001 to 0.01 µM. As for `CN(C)S(=O)(=O)c1cc(F)ccc1CNC(=O)c1nc2n(c(=O)c1O)CCC21CCCC1` [Example 86, N-[[2-[(dimethylamino)sulfonyl]-4-fluorophenyl]methyl]-6′,7′-dihydro-3′-hydroxy-4′-oxo-spiro[cyclopentane-1,8′(4′H)-pyrrolo[1,2-α]pyrimidine]-2′-carboxamide], the IC50 fell in the range of 0.01 to 0.1 µM. `O=C(NCc1ccc(F)cc1-n1cncn1)c1nc2n(c(=O)c1O)CCC21CCCC1` [Example 87, N-[[4-fluoro-2-(1H-1,2,4-triazol-1-yl)phenyl]methyl]-6′,7′-dihydro-3′-hydroxy-4′-oxo-spiro[cyclopentane-1,8′(4′H)-pyrrolo[1,2-α]pyrimidine]-2′-carboxamide]: the IC50 was in the range of 0.001 to 0.01 µM.

For `O=C(NCc1ccc(F)cc1)c1nc2n(c(=O)c1O)CCOC21CCNCC1` [Example 88, N-[(4-fluorophenyl)methyl]-6′,7′-dihydro-3′-hydroxy-4′-oxo-spiro[piperidine-4,9′(4′H)-pyrimido[2,1-c][1,4]oxazine]-2′-carboxamide], the IC50 was 0.01 to 0.1 µM.

As for `CS(=O)(=O)c1cc(F)ccc1CNC(=O)c1nc2n(c(=O)c1O)CCOC21CCCC1` [Example 89, N-[[4-fluoro-2-(methylsulfonyl)phenyl]methyl]-6′,7′-dihydro-3′-hydroxy-4′-oxo-spiro[cyclopentane-1,9′(4′H)-pyrimido[2,1-c][1,4]oxazine]-2′-carboxamide], the IC50 was 0.001 to 0.01 µM. With `CS(=O)(=O)c1cc(F)ccc1CNC(=O)c1nc2n(c(=O)c1O)CCOC21CCOC1` (stereo not shown) [Example 90, N-[[4-fluoro-2-(methylsulfonyl)phenyl]methyl]-4,5,6′,7′-tetrahydro-3′-hydroxy-4′-oxo-spiro[furan-3(2H),9′(4′H)-pyrimido[2,1-c][1,4]oxazine]-2′-carboxamide], the IC50 fell in the range of 0.01 to 0.1 µM.

On to `CNC(=O)c1cc(F)ccc1CNC(=O)c1nc2n(c(=O)c1O)CCOC21CCC1` [Example 91, N-[[4-fluoro-2-[(methylamino)carbonyl]phenyl]methyl]-6′,7′-dihydro-3′-hydroxy-4′-oxo-spiro[cyclobutane-1,9′(4′H)-pyrimido[2,1-c][1,4]oxazine]-2′-carboxamide], for which the IC50 lay in the range of 0.001 to 0.01 µM.

Still in this experiment, the particulars now being: Table 1a; recombinant integrase, activity class.
Regarding `CN1CCn2c(nc(C(=O)NCc3ccc(F)cc3)c(O)c2=O)C12CCCC2` [Example 92, Spiro[cyclopentane-1,9′(6′H)-[4H]pyrazino[1,2-a]pyrimidine]-2′-carboxamide, N-[(4-fluorophenyl)methyl]-7′,8′-dihydro-3′-hydroxy-8′-methyl-4′-oxo-], the IC50 is 0.001 to 0.01 µM. Turning to `CN1CCn2c(nc(C(=O)NCc3ccc(F)cc3-n3cncn3)c(O)c2=O)C12CCCC2` [Example 93, Spiro[cyclopentane-1,9′(6′H)-[4H]pyrazino[1,2-a]pyrimidine]-2′-carboxamide, N-[[4-fluoro-2-(1H-1,2,4-triazol-1-yl)phenyl]methyl]-7′,8′-dihydro-3′-hydroxy-8′-methyl-4′-oxo-], the IC50 was 0.001 to 0.01 µM. In the case of `Cc1ncnn1-c1cc(F)ccc1CNC(=O)c1nc2n(c(=O)c1O)CCN(C)C21CCCC1` [Example 94, Spiro[cyclopentane-1,9′(6′H)-[4H]pyrazino[1,2-a]pyrimidine]-2′-carboxamide, N-[[4-fluoro-2-(5-methyl-1H-1,2,4-triazol-1-yl)phenyl]methyl]-7′,8′-dihydro-3′-hydroxy-8′-methyl-4′-oxo-], the IC50 is 0.01 to 0.1 µM. On the same count and under the same terms, next, `CN1CCn2c(nc(C(=O)NCc3ccc(F)cc3)c(O)c2=O)C12CCCCC2` [Example 95, Spiro[cyclohexane-1,9′(6′H)-[4H]pyrazino[1,2-a]pyrimidine]-2′-carboxamide, N-[(4-fluorophenyl)methyl]-7′,8′-dihydro-3′-hydroxy-8′-methyl-4′-oxo-]: 0.001 to 0.01 µM; `CN1CCn2c(nc(C(=O)NCc3ccc(F)cc3-n3cncn3)c(O)c2=O)C12CCCCC2` [Example 96, Spiro[cyclohexane-1,9′(6′H)-[4H]pyrazino[1,2-a]pyrimidine]-2′-carboxamide, N-[[4-fluoro-2-(1H-1,2,4-triazol-1-yl)phenyl]methyl]-7′,8′-dihydro-3′-hydroxy-8′-methyl-4′-oxo-]: 0.001 to 0.01 µM. With `Cc1ncnn1-c1cc(F)ccc1CNC(=O)c1nc2n(c(=O)c1O)CCN(C)C21CCCCC1` [Example 97, Spiro[cyclohexane-1,9′(6′H)-[4H]pyrazino[1,2-a]pyrimidine]-2′-carboxamide, N-[[4-fluoro-2-(5-methyl-1H-1,2,4-triazol-1-yl)phenyl]methyl]-7′,8′-dihydro-3′-hydroxy-8′-methyl-4′-oxo-], the IC50 lay in the range of 0.01 to 0.1 µM. Regarding `CN1CCn2c(nc(C(=O)NCc3ccc(F)cc3)c(O)c2=O)C12CCC2` [Example 98, Spiro[cyclobutane-1,9′(6′H)-[4H]pyrazino[1,2-a]pyrimidine]-2′-carboxamide, N-[(4-fluorophenyl)methyl]-7′,8′-dihydro-3′-hydroxy-8′-methyl-4′-oxo-], the IC50 fell in the range of 0.001 to 0.01 µM.

In the case of `CN1CCn2c(nc(C(=O)NCc3ccc(F)cc3-n3cncn3)c(O)c2=O)C12CCC2` [Example 99, Spiro[cyclobutane-1,9′(6′H)-[4H]pyrazino[1,2-a]pyrimidine]-2′-carboxamide, N-[[4-fluoro-2-(1H-1,2,4-triazol-1-yl)phenyl]methyl]-7′,8′-dihydro-3′-hydroxy-8′-methyl-4′-oxo-], the IC50 lay within 0.001 to 0.01 µM. On the same count and under the same terms, next, `Cc1ncnn1-c1cc(F)ccc1CNC(=O)c1nc2n(c(=O)c1O)CCN(C)C21CCC1` [Example 100, Spiro[cyclobutane-1,9′(6′H)-[4H]pyrazino[1,2-a]pyrimidine]-2′-carboxamide, N-[[4-fluoro-2-(5-methyl-1H-1,2,4-triazol-1-yl)phenyl]methyl]-7′,8′-dihydro-3′-hydroxy-8′-methyl-4′-oxo-]: 0.01 to 0.1 µM; `O=C(NCc1ccc(F)cc1-n1ccnn1)c1nc2n(c(=O)c1O)CCOC21CCC1` [Example 101, Spiro[cyclobutane-1,9′(4′H)-pyrimido[2,1-c][1,4]oxazine]-2′-carboxamide, N-[[4-fluoro-2-(1H-1,2,3-triazol-1-yl)phenyl]methyl]-6′,7′-dihydro-3′-hydroxy-4′-oxo-]: 0.001 to 0.01 µM.
